Laboratory results taken from patent publication US10420844B2, “Peptide pharmaceuticals” (Mederis Diabetes LLC, priority 2011, dated 2019).
Entries after “also recorded” stand apart in the source; their conditions may differ. Non-standard residues stand in square brackets, D forms with d. Residues, ends and D or L forms follow the SMILES beside them. *: point of attachment. GlcA(β-D,1-O-dodecyl) = CCCCCCCCCCCCO[C@@H]1O[C@H](C(=O)*)[C@@H](O)[C@H](O)[C@H]1O; GlcA(β1-O-octyl) = CCCCCCCCO[C@@H]1O[C@H](C(=O)*)[C@@H](O)[C@H](O)[C@H]1O; βGlcA(1-OMe) = CO[C@@H]1O[C@H](C(=O)*)[C@@H](O)[C@H](O)[C@H]1O; Phe(2,4,6-Me3) = Cc1cc(C)c(C[C@H](N)C(=O)O)c(C)c1; Dmt = Cc1cc(O)cc(C)c1C[C@H](N)C(=O)O; hArg = N=C(N)NCCCC[C@H](N)C(=O)O; Tic = O=C(O)[C@@H]1Cc2ccccc2CN1; Nle = CCCC[C@H](N)C(=O)O; Ac5c = NC1(C(=O)O)CCCC1; Aib = CC(C)(N)C(=O)O; NHBn = c1ccc(CN*)cc1

Key:
[1] = in water; cited from earlier work
[2] = molecular target: T1, PTH1 (PTHR1), SaOS2 cells (Homo sapiens, UniProt Q03431); experiment: PTH1 cellular assay, cAMP generated in SaOS2 cells, Cerep; assay type: cell-based
T1 construct: host or cells: SaOS2 cells (as named in the result head)
T1 sequence (Q03431 27-593): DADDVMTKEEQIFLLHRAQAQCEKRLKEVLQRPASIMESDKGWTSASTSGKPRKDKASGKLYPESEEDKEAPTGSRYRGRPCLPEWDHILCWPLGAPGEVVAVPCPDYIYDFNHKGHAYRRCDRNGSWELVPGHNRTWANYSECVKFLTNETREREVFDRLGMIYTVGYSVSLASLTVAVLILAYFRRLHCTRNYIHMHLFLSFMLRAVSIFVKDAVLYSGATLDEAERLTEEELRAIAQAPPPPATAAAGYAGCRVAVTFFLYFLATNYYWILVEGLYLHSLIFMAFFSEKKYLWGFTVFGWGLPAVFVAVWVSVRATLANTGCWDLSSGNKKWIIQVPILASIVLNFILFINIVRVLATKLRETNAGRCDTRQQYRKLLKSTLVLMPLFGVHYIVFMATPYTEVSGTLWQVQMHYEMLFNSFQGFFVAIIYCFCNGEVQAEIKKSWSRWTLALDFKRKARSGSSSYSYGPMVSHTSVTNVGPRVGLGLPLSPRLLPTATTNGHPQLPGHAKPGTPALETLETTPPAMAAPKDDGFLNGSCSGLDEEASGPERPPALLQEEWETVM
Method: Compounds were weighed precisely in an amount of approximately 1 mg and assayed in standard cellular assays (cerep SA). The readout is the amount of cAMP generated in the cells treated with the test compounds, in either agonist or antagonist mode.
Compounds were dissolved in water and diluted in assay buffer containing 1% bovine serum albumin.

[3] = blood PO4 and Ca levels in rats after a single sc injection; assay type: in vivo, rat; settings: for blood calcium levels versus control (saline/vehicle): 80 (PTH, EU-232) or 320 (EU-232), all time points; for blood PO4 levels, 80 mcg groups: PO4 did not further diminish after 1 hour
Text: Following the method of Frolik, C.

[4] = molecular target: T2, mu opioid receptor (Homo sapiens, UniProt P35372); experiment: mu opioid receptor cellular assay (MOP, agonist and antagonist mode), cAMP readout, Cerep; assay type: cell-based
T2 construct: Cerep SA (contract research organization)
T2 sequence (P35372 whole entry): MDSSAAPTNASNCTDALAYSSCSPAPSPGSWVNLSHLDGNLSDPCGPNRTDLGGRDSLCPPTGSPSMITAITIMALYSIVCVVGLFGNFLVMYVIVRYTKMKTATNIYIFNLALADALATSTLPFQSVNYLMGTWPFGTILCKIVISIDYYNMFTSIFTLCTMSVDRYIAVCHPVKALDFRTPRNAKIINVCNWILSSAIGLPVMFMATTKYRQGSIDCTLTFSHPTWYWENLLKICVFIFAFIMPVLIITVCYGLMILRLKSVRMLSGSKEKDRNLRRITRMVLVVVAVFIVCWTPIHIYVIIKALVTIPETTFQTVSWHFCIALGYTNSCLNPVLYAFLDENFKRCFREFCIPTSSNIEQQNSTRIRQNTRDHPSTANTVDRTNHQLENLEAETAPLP
Method: Compounds were weighed precisely in an amount of approximately 2 mg and assayed in standard cellular assays by the contract research organization Cerep, Inc. (Pullman, Wash.) as executed at their subsidiary, Cerep SA (Le Bois l'Eveque, France). The readout is the amount of cAMP generated in the cells treated with the test compounds, in either agonist or antagonist mode. The assays used were the mu opioid receptor cellular assay (MOP in agonist and antagonist mode), the delta2 opioid receptor cellular assay (DOP in agonist and antagonist mode) and the kappa opioid receptor cellular assay (KOP in agonist and antagonist mode). The assays used are described in Wang, J. B., et al. (1994) FEBS Lett 338: 217-222, Law, P. Y. and Loh, H. H. (1993) Mol Pharmacol 43: 684-693, and Avidor-Reiss, T., et al. (1995) FEBS Lett 361: 70-74. The stimulant for the cells in the DOR antagonist assay was 3×10E-8M DPDPE, a well-accepted DOR literature standard.

[5] = MOP agonist mode and DOP antagonist mode

Row | Compound | CMC [1] [mM] | Characterization [4, 5] | other results
1 | CCCCCCCCCCCCCCO[C@@H]1O[C@H](CO)[C@@H](O[C@@H]2O[C@@H](CO)[C@H](O)[C@@H](O)[C@@H]2O)[C@H](O)[C@H]1O (stereo in doubt) [Tetradecyl maltoside] | 0.01 |  | 
2 | CCCCCCCCCCCCCO[C@@H]1O[C@H](CO)[C@@H](OC2OC(CO)C(O)C(O)C2O)[C@H](O)[C@H]1O (stereo in doubt) [Tridecyl maltoside] | 0.03 |  | 
3 | CCCCCCCCCCO[C@@H]1O[C@H](CO)[C@@H](O[C@H]2O[C@H](CO)[C@@H](O)[C@H](O)[C@H]2O)[C@H](O)[C@H]1O [Decyl maltoside] | 1.8 |  | 
4 | CCCCCCCCCCCCO[C@@H]1O[C@H](CO)[C@@H](O[C@H]2O[C@H](CO)[C@@H](O)[C@H](O)[C@H]2O)[C@H](O)[C@H]1O [Dodecyl-β-D-maltoside] | 0.17 |  | 
5 | CCCCCCCCCCCCO[C@@H]1O[C@H](C(=O)NCCCC[C@H](NC(=O)C(C)(C)NC(=O)[C@H](CCC(N)=O)NC(=O)[C@@H](NC(=O)[C@H](Cc2c[nH]c3ccccc23)NC(=O)[C@H](CCCNC(=N)N)NC(=O)[C@H](C)NC(=O)[C@H](CCCCNC(=N)N)NC(=O)[C@H](CCC(N)=O)NC(=O)[C@H](Cc2c[nH]cn2)NC(=O)[C@H](CCCC)NC(=O)[C@H](CC(C)C)NC(=O)[C@H](CCC(N)=O)NC(=O)[C@@H](NC(=O)[C@H](CCC(=O)O)NC(=O)C(C)(C)NC(=O)[C@@H](NC(=O)C2(N)CCCC2)C(C)C)[C@@H](C)CC)[C@@H](C)CC)C(=O)NC(C)(C)C(N)=O)[C@@H](O)[C@H](O)[C@H]1O [EU-232] (H-[Ac5c]V[Aib]EIQL[Nle]HQ[hArg]ARWIQ[Aib]K(GlcA(β-D,1-O-dodecyl))[Aib]-NH2) |  |  | Characterization [2]: agonist; character of the cellular cAMP response [2]: super-agonistic response; also recorded: super-agonistic activity; time of maximal statistically significant effect on blood phosphate ([3]; rat serum, sc dosing, last time point of the assay (FIG. 6)): 5 h; blood calcium levels versus control (saline/vehicle) ([3]; rat, sc): No groups were statistically significantly different from control; blood calcium at maximally effective dose and time point ([3]; rat, sc, G4 320, at 5 hrs): no elevation; blood PO4 levels, 80 mcg groups ([3]; rat, single sc injection): transient but not statistically significant decrease; maximal decrease of blood PO4 from time 0 hr. level ([3]; rat, single sc injection, seen at the 5 hr. time point, statistically significant): 25-35%
6 | CO[C@@H]1O[C@H](C(=O)NCCCC[C@H](NC(=O)[C@H](Cc2c(C)cc(C)cc2C)NC(=O)[C@@H]2CCCN2C(=O)[C@@H](N)Cc2c(C)cc(O)cc2C)C(N)=O)[C@@H](O)[C@H](O)[C@H]1O [EU-A101, Dmt-Pro-Tmp-Lys(C1-glucuronyl)-NH2] (H-[Dmt]P[Phe(2,4,6-Me3)]K(βGlcA(1-OMe))-NH2; N-terminus assumed) |  |  | Characterization ([4]; MOP agonist/antagonist modes): pure agonist
7 | CCCCCCCCO[C@@H]1O[C@H](C(=O)NCCCC[C@H](NC(=O)[C@H](Cc2c(C)cc(C)cc2C)NC(=O)[C@@H]2CCCN2C(=O)[C@@H](N)Cc2c(C)cc(O)cc2C)C(N)=O)[C@@H](O)[C@H](O)[C@H]1O [EU-A102, 2′,6′-dimethyl-L-tyrosyl-prolyl-2′,4′,6′-trimethyl-L-phenylalanyl-Nε-(1′-octyl β-D-glucuronyl)-L-lysine amide] (H-[Dmt]P[Phe(2,4,6-Me3)]K(GlcA(β1-O-octyl))-NH2) |  |  | Characterization ([4]; MOP agonist/antagonist modes): partial agonist
8 | CCCCCCCCCCCCO[C@@H]1O[C@H](C(=O)NCCCC[C@H](NC(=O)[C@H](Cc2c(C)cc(C)cc2C)NC(=O)[C@@H]2CCCN2C(=O)[C@@H](N)Cc2c(C)cc(O)cc2C)C(N)=O)[C@@H](O)[C@H](O)[C@H]1O [EU-A103, Dmt-Pro-Tmp-Lys(C12-glucuronyl)-NH2] (H-[Dmt]P[Phe(2,4,6-Me3)]K(GlcA(β-D,1-O-dodecyl))-NH2; N-terminus assumed) |  |  | Characterization ([4]; MOP agonist/antagonist modes): pure antagonist
9 | CO[C@@H]1O[C@H](C(=O)NCCCC[C@@H](NC(=O)[C@@H](N)Cc2c(C)cc(O)cc2C)C(=O)N[C@@H](Cc2c(C)cc(C)cc2C)C(=O)N[C@@H](Cc2ccccc2)C(N)=O)[C@@H](O)[C@H](O)[C@H]1O [EU-A107, Dmt-D-Lys(C1-glucuronyl)-Tmp-Phe-NH2] (H-[Dmt][dK](βGlcA(1-OMe))[Phe(2,4,6-Me3)]F-NH2; N-terminus assumed) |  |  | Characterization ([4]; MOP agonist/antagonist modes): Agonist
10 | CCCCCCCCO[C@@H]1O[C@H](C(=O)NCCCC[C@H](NC(=O)[C@H](Cc2ccccc2)NC(=O)[C@@H]2Cc3ccccc3CN2C(=O)[C@@H](N)Cc2c(C)cc(O)cc2C)C(N)=O)[C@@H](O)[C@H](O)[C@H]1O [EU-A180, Dmt-Tic-Phe-Lys(C8-glucuronyl)-NH2] (H-[Dmt][Tic]FK(GlcA(β1-O-octyl))-NH2) |  | Pure MOP Ag; pure DOP antag | 
11 | CO[C@@H]1O[C@H](C(=O)NCCCC[C@H](NC(=O)[C@H](Cc2ccccc2)NC(=O)[C@H](Cc2ccccc2)NC(=O)[C@@H]2Cc3ccccc3CN2C(=O)[C@@H](N)Cc2c(C)cc(O)cc2C)C(N)=O)[C@@H](O)[C@H](O)[C@H]1O [EU-A189, 2′,6′-dimethyl-L-tyrosyl-L-1,2,3,4-tetrahydroisoquinoline-3-carbonyl-L-phenylalanyl-L-phenylalanys-Nε-(1′-methyl β-D-glucuronyl)-L-lysyl-amide] |  | Pure MOP Ag; pure DOP antag | 
12 | CO[C@@H]1O[C@H](C(=O)NCCCC[C@H](NC(=O)[C@H](Cc2ccccc2)NC(=O)[C@@H]2Cc3ccccc3CN2C(=O)[C@@H](N)Cc2c(C)cc(O)cc2C)C(=O)NC(C)(C)C(N)=O)[C@@H](O)[C@H](O)[C@H]1O [EU-A600, Dmt-Tic-Phe-Lys(C1-glucuronyl)-Aib-NH2] (H-[Dmt][Tic]FK(βGlcA(1-OMe))[Aib]-NH2) |  | Pure MOP Ag; pure DOP antag | 
13 | CO[C@@H]1O[C@H](C(=O)NCCCC[C@H](NC(=O)[C@H](Cc2ccccc2)NC(=O)[C@@H]2Cc3ccccc3CN2C(=O)[C@@H](N)Cc2c(C)cc(O)cc2C)C(=O)NCc2ccccc2)[C@@H](O)[C@H](O)[C@H]1O [EU-A620, Dmt-Tic-Phe-Lys(C1-glucuronyl)-NHCH2Ph] (H-[Dmt][Tic]FK(βGlcA(1-OMe))-NHBn) |  | Pure MOP Ag; pure DOP antag | 
14 | CO[C@@H]1O[C@H](C(=O)NCCCC[C@@H](NC(=O)[C@H](Cc2ccccc2)NC(=O)[C@@H]2Cc3ccccc3CN2C(=O)[C@@H](N)Cc2c(C)cc(O)cc2C)C(=O)NCc2ccccc2)[C@@H](O)[C@H](O)[C@H]1O [EU-A639, Dmt-Tic-Phe-D-Lys(C1-glucuronyl)-NHCH2Ph] (H-[Dmt][Tic]F[dK](βGlcA(1-OMe))-NHBn; N-terminus assumed) |  | Pure MOP Ag; pure DOP antag | 
15 | CCCCCCCCO[C@@H]1O[C@H](CO)[C@@H](O[C@H]2O[C@H](CO)[C@@H](O)[C@H](O)[C@H]2O)[C@H](O)[C@H]1O [Octyl maltoside] | 19.5 |  | 
16 | CC[C@H](C)[C@H](NC(=O)[C@H](CCC(=O)O)NC(=O)[C@H](CO)NC(=O)[C@@H](NC(=O)[C@@H](N)CO)C(C)C)C(=O)N[C@@H](CCC(N)=O)C(=O)N[C@@H](CC(C)C)C(=O)N[C@@H](CCSC)C(=O)N[C@@H](Cc1cnc[nH]1)C(=O)N[C@@H](CC(N)=O)C(=O)N[C@@H](CC(C)C)C(=O)NCC(=O)N[C@@H](CCCCN)C(=O)N[C@@H](Cc1cnc[nH]1)C(=O)N[C@@H](CC(C)C)C(=O)N[C@@H](CC(N)=O)C(=O)N[C@@H](CO)C(=O)N[C@@H](CCSC)C(=O)N[C@@H](CCC(=O)O)C(=O)N[C@@H](CCCN=C(N)N)C(=O)N[C@H](C(=O)N[C@@H](CCC(=O)O)C(=O)N[C@@H](Cc1c[nH]c2ccccc12)C(=O)N[C@@H](CC(C)C)C(=O)N[C@@H](CCCN=C(N)N)C(=O)N[C@@H](CCCCN)C(=O)N[C@@H](CCCCN)C(=O)N[C@@H](CC(C)C)C(=O)N[C@@H](CCC(N)=O)C(=O)N[C@@H](CC(=O)O)C(=O)N[C@H](C(=O)N[C@@H](Cc1cnc[nH]1)C(=O)N[C@@H](CC(N)=O)C(=O)N[C@@H](Cc1ccccc1)C(=O)O)C(C)C)C(C)C [PTH, reference compound] |  |  | blood calcium levels versus control (saline/vehicle) ([3]; rat, sc): No groups were statistically significantly different from control; blood PO4 levels, 80 mcg groups ([3]; rat, single sc injection): transient but not statistically significant decrease
17 | Dmt-Tic-Phe-D-Lys(C1-glucuronyl)-Aib-NH2 [EU-A615] |  | Pure MOP Ag; pure DOP antag | 
18 | Dmt-Tic-Phe-Phe-Lys(C12-glucuronyl)-NH2 [EU-A190] |  | Pure MOP Ag; pure DOP antag | 
19 | Sucrose dodecanoate | 0.3 |  | 
